In data set [1] the target is T1, histamine H1 (Cavia porcellus, UniProt P31389). Briefly: Drugs vs. histamine at 1 × 10^-6 M in guinea pig terminal ileum, comparison with -383 analogues. Also on record: A section of terminal ileum was removed and suspended in aerated 37° C; Tyrodes solution; from tissue; host or cells: terminal ileum of male Hartley guinea pigs. It counts as cell-based. From the text: Tyrodes solution. […] Tissues were washed several times before repeating the procedure for the next concentration. A different set of 4 tissues was used for each drug.

In data set [2] the test system is histamine-induced deaths in guinea pigs. Briefly: Inhibition of histamine-induced deaths in guinea pigs. It counts as in vivo, guinea pig. The method, then: The compound exemplified herein, after a one hour pretreatment period, inhibited histamine-induced deaths in guinea pigs over the range of 1-5 mg/kg, with 100 percent effectiveness at the latter dose. At 18 hours post drug treatment the test compound retained 40 percent effectiveness at 10 mg/kg.

Data set [3] addresses T1, histamine H1. Description: Histamine-induced contraction of isolated guinea pig ileum, single drug concentration. Format: cell-based. More on the design: A section of terminal ileum was removed and suspended in aerated 37° C; Tyrodes solution; from tissue; host or cells: terminal ileum of male Hartley guinea pigs. The settings on record: histamine 1×10^-7 M; test drug 1×10^-6 M. The method, then: Fresh segments of terminal ileum immediately proximal to Peyer's patch, obtained from male Buckshire guinea pigs, were suspended in 37° C. Tyrode's solution in a tissue bath and aerated. The tissue segments were placed under one gram tension and allowed to equilibrate for one hour. Histamine was added to each tissue bath to a final concentration of 1×10^-7 M. The response was noted as grams tension. Test drug was added, in the presence of histamine, to each bath to a final concentration of 1×10^-6 M. The change in grams tension was noted and the percent reduction in grams tension calculated.

Data set [4] addresses T1, histamine H1. Description: cell-based. The method, then: Subsequently, additional characterization of the compound herein exemplified was carried out in which complete histamine dose response curves were constructed first in the absence of test drug and then repeated in the presence of test drug at a specified concentration. A single experiment of this type allowed calculation of a pKB value from the rightward shift induced by the drug in the histaminic dose response curve, while three such experiments (at three different drug concentrations) allowed calculation of a pA2 value.

The subject of data set [5] is histamine-induced changes in bronchopulmonary parameters. Briefly: Reversal of histamine-induced changes in bronchopulmonary parameters in the anesthetized guinea pig. Format: in vivo.
In data set [6] the test system is histamine-induced wheal formation in guinea pig skin. Description: Histamine-induced wheal formation in guinea pig skin. It counts as in vivo.
A short description of data set [7]: Conditioned avoidance (shelf-jump), Herman et al. Format: in vivo. The settings on record: 40 mg/kg.
Data set [8] can be described thus: Confinement motor activity, Tedeschi et al. Format: in vivo. The settings on record: 5 and 10 mg/kg i.p.
In data set [9] the test system is histamine-induced paw edema formation. Description: Histamine-induced paw edema formation. The settings on record: in vivo.
In data set [10] the test system is limbic D2 dopamine receptor. Briefly: Limbic D2 dopamine receptor binding (Fields et al.). The settings on record: at 1 μM.
Data set [11] is described as follows: Modified Geller-Seifter experimentally-induced conflict test. The settings on record: in vivo.
[12] abbreviates: guinea pig ileum, histamine 1 × 10^-6 M, calculated from the table data, read-out: IC50 (inhibitory concentration50).

Each structure is given as a SMILES string. Like-named read-outs stand apart in the source and are kept apart here.

T1 sequence (P31389 whole entry): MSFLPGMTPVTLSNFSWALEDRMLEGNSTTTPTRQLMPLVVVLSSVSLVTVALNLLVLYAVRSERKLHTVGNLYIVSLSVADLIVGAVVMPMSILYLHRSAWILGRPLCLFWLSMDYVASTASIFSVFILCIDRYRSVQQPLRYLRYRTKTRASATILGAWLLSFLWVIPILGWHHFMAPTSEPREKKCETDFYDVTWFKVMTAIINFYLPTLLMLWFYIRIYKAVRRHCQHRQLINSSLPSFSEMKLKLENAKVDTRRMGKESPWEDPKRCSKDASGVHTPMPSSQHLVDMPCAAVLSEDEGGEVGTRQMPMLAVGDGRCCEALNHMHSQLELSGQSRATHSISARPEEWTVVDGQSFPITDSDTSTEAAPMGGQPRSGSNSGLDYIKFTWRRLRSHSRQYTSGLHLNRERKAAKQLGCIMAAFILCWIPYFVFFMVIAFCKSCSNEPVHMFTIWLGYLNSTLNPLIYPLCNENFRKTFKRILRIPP

On to `Cn1c(=O)c2c(ncn2CCCCN2CCN(C(c3ccc(Cl)cc3)c3ccc(Cl)cc3)CC2)n(C)c1=O` [-383 Dichloro compound, 7-[4-[4-(4',4"-dichlorodiphenylmethyl)piperazinyl-(1)]-n-butyl]theophylline, reference compound], for which the IC50 in data set [1] (setting [12]) is 790 nM.

With `Cn1c(=O)c2c(ncn2CCCN2CCN(C(c3ccccc3)c3ccc(Cl)cc3)CC2)n(C)c1=O` (stereo not shown) [-383 Monochloro compound, 7-[3-[4-p-chlorobenzhydrylpiperazinyl-(1)]-n-propyl]-theophylline, reference compound], the IC50 in [1] (setting [12]) is 370 nM.

With `Cn1c(=O)c2c(ncn2CCCN2CCN(C(c3ccc(F)cc3)c3ccc(F)cc3)CC2)n(C)c1=O` [Difluoro compound, 7-[3-[4-bis(4-fluorophenyl)methyl]-1-piperazinyl]propyl-3,7-dihydro-1,3-dimethyl-1H-purine-2,6-dione], the “effectiveness in inhibition of histamine-induced deaths” value in [2] (5 mg/kg, one hour pretreatment) turned out to be 100%. Moreover, the “effectiveness in inhibition of histamine-induced deaths” value in data set [2] (10 mg/kg, 18 hours post drug treatment) was 40%. Further, the “antagonist action against the histamine-induced contractile response in the isolated guinea pig ileum” value in data set [3] is listed as “potent, competitive antagonist action”. Also, in data set [1], the IC50 came to 38 nM. In data set [1] (ratio of IC50's), the “potency relative to the -383 dichloro compound” value was “about 21 times” and the “potency relative to the -383 monochloro compound” value was found to be 10 times. In data set [4], the Kb was 6.31 nM. In addition, the “type of antagonism (shift of histamine dose response curve)” value in data set [4] (isolated guinea pig ileum) is listed as “parallel rightward shifts with no decrease in the maximum response”. In addition, in [4] (vs terfenadine), the “potency relative to terfenadine” value was “about five times as potent as terfenadine”. Besides, the “reversal of histamine-induced changes in bronchopulmonary parameters” value in data set [5] is recorded as “reversal of histamine-induced changes in bronchopulmonary parameters”. Further, in data set [6] (1.7 mg/kg, 18 hour pretreatment), the “effectiveness against wheal formation” value is recorded as “retained maximal effectiveness”. Moreover, the “suppression of wheal formation” value in data set [6] (highest dose (2.1 mg/kg), one hour pretreatment) is on record as “Maximum suppression of wheal formation”. Also, the “conditioned avoidance (shelf-jump) activity” value in data set [7] was “inactive”. Also, the “sedative effect in confinement motor activity” value in data set [8] is listed as “no sedative effect”. In addition, the “inhibition of histamine-induced paw edema formation” value in data set [9] was “inhibition of histamine-induced paw edema formation”. Besides, in [10], the “inhibition of limbic D2 dopamine receptor binding” value turned out to be 43%. For the same compound, the “effect in modified Geller-Seifter conflict test” value in data set [11] is “mild stimulation”.

Source of the values: patent publication US4710572A, “Histamine H1 antagonists” (American Home Products Corporation, priority 1986, dated 1987).
